Experiments:
Assay in all cases: relative viability (nuclei count vs DMSO), 5 days (fraction); higher = more cells survive
SW 900 = test system: SW 900
Outline: (§1)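 A single step with final 0.05% Triton X-100, 1% formaldehyde and 1 ug/ml Hoechst fixed the cells and stained nuclei 5 days after treatment. Lung cancer cell lines in 1536-well plates had been treated by pin tool the day after seeding with one drug alone or a fixed anchor-drug dose plus five library-drug doses (not always all listed) in √10 steps, and nuclei were counted on 4× images. Relative viability is the ratio of nuclei in treated wells to nuclei in vehicle wells, taken as the median of duplicate plates.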

EKVX = test system: EKVX
Outline: as §1

COR-L23 = test system: COR-L23
Outline: as §1

SW 1573 = test system: SW 1573
Outline: as §1

NCI-H1793 = test system: NCI-H1793
Outline: as §1

HCC-44 = test system: HCC-44
Outline: as §1

NCI-H460 = test system: NCI-H460
Outline: as §1

LK-2 = test system: LK-2
Outline: as §1

NCI-H2228 = test system: NCI-H2228
Outline: as §1

NCI-H520 = test system: NCI-H520
Outline: as §1

EMC-BAC-2 = test system: EMC-BAC-2
Outline: as §1

LXF-289 = test system: LXF-289
Outline: as §1

NCI-H1650 = test system: NCI-H1650
Outline: as §1

NCI-H1651 = test system: NCI-H1651
Outline: as §1

NCI-H1915 = test system: NCI-H1915
Outline: as §1

NCI-H2347 = test system: NCI-H2347
Outline: as §1

NCI-H661 = test system: NCI-H661
Outline: as §1

A-427 = test system: A-427
Outline: as §1

NCI-H2087 = test system: NCI-H2087
Outline: as §1

BEN = test system: BEN
Outline: as §1

EPLC-272H = test system: EPLC-272H
Outline: as §1

NCI-H358 = test system: NCI-H358
Outline: as §1

`COCC1(CO)C(=O)C2CCN1CC2` (centres undefined) [PRIMA-1MET] + Nc1nc2[nH]cc(CCc3ccc(C(=O)N[C@@H](CCC(=O)O)C(=O)O)cc3)c2c(=O)[nH]1 [Pemetrexed] (partner 0.2 µM) showed a relative viability (SW 900; first compound 0.2 µM) of 0.522, a relative viability (SW 900; first compound 0.6325 µM) of 0.282 and a relative viability (SW 900; first compound 6.325 µM) of 0.455. It also gave a relative viability (SW 900; first compound 20 µM) of 0.0805, a relative viability (EKVX; first compound 0.2 µM) of 0.448 and a relative viability (EKVX; first compound 2 µM) of 0.385. For the same compound, the relative viability (EKVX; first compound 6.325 µM) was 0.447, the relative viability (EKVX; first compound 20 µM) was 0.385 and the relative viability (COR-L23; first compound 0.2 µM) was 0.184. For the same compound, the relative viability (COR-L23; first compound 0.6325 µM) was 0.199, the relative viability (COR-L23; first compound 2 µM) was 0.191 and the relative viability (COR-L23; first compound 6.325 µM) was 0.192. It also gave a relative viability (COR-L23; first compound 20 µM) of 0.0784, a relative viability (SW 1573; first compound 0.2 µM) of 0.882 and a relative viability (SW 1573; first compound 0.6325 µM) of 0.89. The relative viability (SW 1573; first compound 2 µM) was 0.752, the relative viability (SW 1573; first compound 6.325 µM) was 0.0377 and the relative viability (SW 1573; first compound 20 µM) was 0.0278. The relative viability (NCI-H1793; first compound 0.2 µM) was 0.964, the relative viability (NCI-H1793; first compound 0.6325 µM) was 0.803 and the relative viability (NCI-H1793; first compound 6.325 µM) was 1.09. The relative viability (NCI-H1793; first compound 20 µM) was 0.919, the relative viability (HCC-44; first compound 0.2 µM) was 0.748 and the relative viability (HCC-44; first compound 0.6325 µM) was 0.641. The relative viability (HCC-44; first compound 2 µM) was 0.681, the relative viability (HCC-44; first compound 6.325 µM) was 0.676 and the relative viability (HCC-44; first compound 20 µM) was 0.607. For the same compound, the relative viability (NCI-H460; first compound 0.2 µM) was 0.0602, the relative viability (NCI-H460; first compound 0.6325 µM) was 0.051 and the relative viability (NCI-H460; first compound 2 µM) was 0.0601. The relative viability (NCI-H460; first compound 6.325 µM) was 0.0553, the relative viability (NCI-H460; first compound 20 µM) was 0.0386 and the relative viability (LK-2; first compound 0.2 µM) was 0.271. The relative viability (LK-2; first compound 0.6325 µM) was 0.0831, the relative viability (LK-2; first compound 2 µM) was 0.221 and the relative viability (LK-2; first compound 6.325 µM) was 0.125. The relative viability (LK-2; first compound 20 µM) was 0.0594, the relative viability (NCI-H2228; first compound 0.2 µM) was 0.351 and the relative viability (NCI-H2228; first compound 0.6325 µM) was 0.332. It also gave a relative viability (NCI-H2228; first compound 2 µM) of 0.3, a relative viability (NCI-H2228; first compound 6.325 µM) of 0.305 and a relative viability (NCI-H2228; first compound 20 µM) of 0.0521. It also gave a relative viability (NCI-H520; first compound 0.2 µM) of 0.726, a relative viability (NCI-H520; first compound 2 µM) of 0.681 and a relative viability (NCI-H520; first compound 6.325 µM) of 0.647. The relative viability (NCI-H520; first compound 20 µM) was 0.421, the relative viability (EMC-BAC-2; first compound 0.2 µM) was 0.549 and the relative viability (EMC-BAC-2; first compound 0.6325 µM) was 0.44. The relative viability (EMC-BAC-2; first compound 2 µM) was 0.422, the relative viability (EMC-BAC-2; first compound 6.325 µM) was 0.459 and the relative viability (EMC-BAC-2; first compound 20 µM) was 0.473. For the same compound, the relative viability (LXF-289; first compound 0.2 µM) was 0.967, the relative viability (LXF-289; first compound 0.6325 µM) was 0.891 and the relative viability (LXF-289; first compound 2 µM) was 1.09. For the same compound, the relative viability (LXF-289; first compound 6.325 µM) was 0.954, the relative viability (LXF-289; first compound 20 µM) was 0.875 and the relative viability (NCI-H1650; first compound 0.2 µM) was 0.407. It also gave a relative viability (NCI-H1650; first compound 0.6325 µM) of 0.306, a relative viability (NCI-H1650; first compound 2 µM) of 0.399 and a relative viability (NCI-H1650; first compound 6.325 µM) of 0.374. The relative viability (NCI-H1650; first compound 20 µM) was 0.304, the relative viability (NCI-H1651; first compound 0.2 µM) was 0.641 and the relative viability (NCI-H1651; first compound 0.6325 µM) was 0.192. For the same compound, the relative viability (NCI-H1651; first compound 2 µM) was 0.542, the relative viability (NCI-H1651; first compound 6.325 µM) was 0.605 and the relative viability (NCI-H1651; first compound 20 µM) was 0.651. It also gave a relative viability (NCI-H1915; first compound 0.2 µM) of 0.54, a relative viability (NCI-H1915; first compound 0.6325 µM) of 0.522 and a relative viability (NCI-H1915; first compound 2 µM) of 0.466. The relative viability (NCI-H1915; first compound 6.325 µM) was 0.511, the relative viability (NCI-H1915; first compound 20 µM) was 0.467 and the relative viability (NCI-H2347; first compound 0.2 µM) was 0.441. The relative viability (NCI-H2347; first compound 0.6325 µM) was 0.455, the relative viability (NCI-H2347; first compound 2 µM) was 0.335 and the relative viability (NCI-H2347; first compound 6.325 µM) was 0.407. The relative viability (NCI-H2347; first compound 20 µM) was 0.398, the relative viability (NCI-H661; first compound 0.2 µM) was 0.954 and the relative viability (NCI-H661; first compound 0.6325 µM) was 0.849. For the same compound, the relative viability (NCI-H661; first compound 2 µM) was 0.952, the relative viability (NCI-H661; first compound 6.325 µM) was 0.963 and the relative viability (NCI-H661; first compound 20 µM) was 0.928. It also gave a relative viability (A-427; first compound 0.2 µM) of 1.11, a relative viability (A-427; first compound 0.6325 µM) of 0.92 and a relative viability (A-427; first compound 2 µM) of 0.953. For the same compound, the relative viability (A-427; first compound 6.325 µM) was 1.06, the relative viability (A-427; first compound 20 µM) was 0.962 and the relative viability (NCI-H2087; first compound 0.6325 µM) was 0.639. For the same compound, the relative viability (NCI-H2087; first compound 2 µM) was 0.68, the relative viability (NCI-H2087; first compound 6.325 µM) was 0.61 and the relative viability (NCI-H2087; first compound 20 µM) was 0.563. For the same compound, the relative viability (BEN; first compound 0.2 µM) was 0.898, the relative viability (BEN; first compound 0.6325 µM) was 0.421 and the relative viability (BEN; first compound 6.325 µM) was 0.801. For the same compound, the relative viability (BEN; first compound 20 µM) was 0.834, the relative viability (EPLC-272H; first compound 0.2 µM) was 0.35 and the relative viability (EPLC-272H; first compound 0.6325 µM) was 0.403. For the same compound, the relative viability (EPLC-272H; first compound 2 µM) was 0.314, the relative viability (EPLC-272H; first compound 6.325 µM) was 0.317 and the relative viability (EPLC-272H; first compound 20 µM) was 0.138. It also gave a relative viability (NCI-H358; first compound 0.2 µM) of 0.175, a relative viability (NCI-H358; first compound 0.6325 µM) of 0.159 and a relative viability (NCI-H358; first compound 2 µM) of 0.165. It also gave a relative viability (NCI-H358; first compound 6.325 µM) of 0.164 and a relative viability (NCI-H358; first compound 20 µM) of 0.198.
